Test results reported in ChEMBL document CHEMBL5303764, “Data for DCP probe BI-3812” (2023).
Activity calls are given as the source filed them. The rule behind the calls is not given here.

Legend:
[1] = biological target: Alpha-1A adrenergic receptor (Homo sapiens) (UniProt P35348); test: ALPHA1AH_ANTAG Eurofins SafetyScreen44 (BI); conditions: filed as antagonist, Compound concentration 10.0 uM
[2] = biological target: Phosphatidylinositol 4,5-bisphosphate 3-kinase catalytic subunit gamma isoform (Homo sapiens) (UniProt P48736); test: PIK3CG Invitrogen Lab (UK) kinase screen (BI); conditions: Compound concentration 1.0 uM
[3] = biological target: Interleukin-1 receptor-associated kinase 4 (Homo sapiens) (UniProt Q9NWZ3); test: IRAK4 Invitrogen Lab (UK) kinase screen (BI); conditions: Compound concentration 1.0 uM
hERG (KCNH2) = hERG (KCNH2) (Homo sapiens, UniProt Q12809); test: HERG_DOFETILIDE Eurofins SafetyScreen44 (BI); conditions: probe [3H]dofetilide, compound concentration 10 uM, read-out: % Ctrl
[4] = biological target: Mu-type opioid receptor (Homo sapiens) (UniProt P35372); test: MU/H Eurofins SafetyScreen44 (BI); conditions: Compound concentration 10.0 uM
[5] = biological target: 5-hydroxytryptamine receptor 1B (Homo sapiens) (UniProt P28222); test: 5HT1B(H) Eurofins SafetyScreen44 (BI); conditions: filed as antagonist, Compound concentration 10.0 uM
[6] = biological target: D(1B) dopamine receptor (Homo sapiens) (UniProt P21918); conditions: Compound concentration 10.0 uM
[7] = biological target: Vascular endothelial growth factor receptor 2 (Homo sapiens) (UniProt P35968); test: KDR Invitrogen Lab (UK) kinase screen (BI); conditions: Compound concentration 1.0 uM
[8] = biological target: Cyclin-dependent kinase 2/cyclin A (Homo sapiens) (UniProt P24941+P20248+P78396); test: CDK2/CYCLINA Invitrogen Lab (UK) kinase screen (BI); assay type: protein-complex assay; conditions: Compound concentration 1.0 uM
[9] = biological target: Sigma non-opioid intracellular receptor 1 (Homo sapiens) (UniProt Q99720); conditions: Compound concentration 10.0 uM
[10] = biological target: Fibroblast growth factor receptor 1 (Homo sapiens) (UniProt P11362); test: FGFR1 Invitrogen Lab (UK) kinase screen (BI); conditions: Compound concentration 1.0 uM
[11] = biological target: Inhibitor of nuclear factor kappa-B kinase subunit beta (Homo sapiens) (UniProt O14920); test: IKBKB Invitrogen Lab (UK) kinase screen (BI); conditions: Compound concentration 1.0 uM
[12] = biological target: 5-hydroxytryptamine receptor 3A (Homo sapiens) (UniProt P46098); conditions: Compound concentration 10.0 uM
[13] = biological target: 5-hydroxytryptamine receptor 7 (Homo sapiens) (UniProt P34969); conditions: Compound concentration 10.0 uM
[14] = biological target: Muscarinic acetylcholine receptor M4 (Homo sapiens, UniProt P08173); test: GPCRScan assay: inhibition of M4; parameters: radioligand conc. used [nm] 0.3 – 1.0, parental cells stable CHO
[15] = biological target: Protein kinase C alpha type (Homo sapiens) (UniProt P17252); test: PRKCA Invitrogen Lab (UK) kinase screen (BI); conditions: Compound concentration 1.0 uM
[16] = biological target: Alpha-2A adrenergic receptor (Homo sapiens) (UniProt P08913); test: ALPHA2A/HU Eurofins SafetyScreen44 (BI); conditions: Compound concentration 10.0 uM
[17] = biological target: Prostaglandin G/H synthase 1 (Homo sapiens) (UniProt P23219); test: COX-1 Eurofins SafetyScreen44 (BI); conditions: Compound concentration 10.0 uM
[18] = biological target: Mitogen-activated protein kinase 8 (Homo sapiens) (UniProt P45983); test: MAPK8 Invitrogen Lab (UK) kinase screen (BI); conditions: Compound concentration 1.0 uM
[19] = biological target: T1, B-cell lymphoma 6 protein (Homo sapiens, UniProt P41182); test: BCL6::NCOR LUMIER in cells
[20] = biological target: Dual specificity mitogen-activated protein kinase kinase 1 (Homo sapiens) (UniProt Q02750); test: MAP2K1 Invitrogen Lab (UK) kinase screen (BI); conditions: Compound concentration 1.0 uM
[21] = biological target: 5-hydroxytryptamine receptor 1D (Homo sapiens) (UniProt P28221); conditions: Compound concentration 10.0 uM
[22] = biological target: B-cell CLL/lymphoma 6 member B protein (Homo sapiens, UniProt Q8N143); test: SPR (BCL6B), Ontario institute for cancer research
[23] = biological target: 5-hydroxytryptamine receptor 5A (Homo sapiens) (UniProt P47898); conditions: Compound concentration 10.0 uM
[24] = biological target: Delta-type opioid receptor (Homo sapiens) (UniProt P41143); conditions: Compound concentration 10.0 uM
[25] = biological target: Tyrosine-protein kinase ITK/TSK (Homo sapiens) (UniProt Q08881); test: ITK Invitrogen Lab (UK) kinase screen (BI); conditions: Compound concentration 1.0 uM
[26] = biological target: Serine/threonine-protein kinase TBK1 (Homo sapiens) (UniProt Q9UHD2); test: TBK1 Invitrogen Lab (UK) kinase screen (BI); conditions: Compound concentration 1.0 uM
[27] = biological target: Tyrosine-protein kinase Lck (Homo sapiens) (UniProt P06239); test: LCK_CE Eurofins SafetyScreen44 (BI); conditions: Compound concentration 10.0 uM
[28] = biological target: Cannabinoid receptor 2 (Homo sapiens) (UniProt P34972); test: CB2/PERIPH/H Eurofins SafetyScreen44 (BI); conditions: Compound concentration 10.0 uM
[29] = biological target: Myosin light chain kinase 2, skeletal/cardiac muscle (Homo sapiens) (UniProt Q9H1R3); test: MYLK2 Invitrogen Lab (UK) kinase screen (BI); conditions: Compound concentration 1.0 uM
[30] = biological target: Epidermal growth factor receptor (Homo sapiens) (UniProt P00533); test: EGFR Invitrogen Lab (UK) kinase screen (BI); conditions: Compound concentration 1.0 uM
[31] = biological target: Proto-oncogene tyrosine-protein kinase Src (Homo sapiens) (UniProt P12931); test: SRC Invitrogen Lab (UK) kinase screen (BI); conditions: Compound concentration 1.0 uM
[32] = biological target: Histamine H4 receptor (Homo sapiens) (UniProt Q9H3N8); conditions: Compound concentration 10.0 uM
[33] = biological target: Sodium-dependent noradrenaline transporter (Homo sapiens) (UniProt P23975); conditions: Compound concentration 10.0 uM
[34] = biological target: AMP-activated protein kinase (AMPK) alpha-1/beta-1/gamma-1 (Homo sapiens) (UniProt P54619+Q9Y478+Q13131); test: AMPK A1B1G1 Invitrogen Lab (UK) kinase screen (BI); assay type: protein-complex assay; conditions: Compound concentration 1.0 uM
[35] = biological target: T1, B-cell lymphoma 6 protein; test: BCL6:BCOR ULight TR-FRET
[36] = biological target: Mitogen-activated protein kinase kinase kinase 8 (Homo sapiens) (UniProt P41279); test: MAP3K8 Invitrogen Lab (UK) kinase screen (BI); conditions: Compound concentration 1.0 uM
[37] = biological target: D(3) dopamine receptor (Homo sapiens) (UniProt P35462); conditions: Compound concentration 10.0 uM
[38] = biological target: Ribosomal protein S6 kinase beta-1 (Homo sapiens) (UniProt P23443); test: RPS6KB1 Invitrogen Lab (UK) kinase screen (BI); conditions: Compound concentration 1.0 uM
[39] = biological target: Zinc finger and BTB domain-containing protein 17 (Homo sapiens, UniProt Q13105); test: SPR (ZBTB17), Ontario institute for cancer research
[40] = biological target: High affinity nerve growth factor receptor (Homo sapiens) (UniProt P04629); test: NTRK1 Invitrogen Lab (UK) kinase screen (BI); conditions: Compound concentration 1.0 uM
[41] = biological target: Androgen receptor (Homo sapiens) (UniProt P10275); test: ANDROGEN/H Eurofins SafetyScreen44 (BI); conditions: Compound concentration 10.0 uM
[42] = biological target: Muscarinic acetylcholine receptor M3 (Homo sapiens, UniProt P20309); test: M3/H Eurofins SafetyScreen44 (BI); conditions: Compound concentration 10.0 uM
[43] = biological target: Ribosomal protein S6 kinase alpha-3 (Homo sapiens) (UniProt P51812); test: RPS6KA3 Invitrogen Lab (UK) kinase screen (BI); conditions: Compound concentration 1.0 uM

Sequence of Muscarinic acetylcholine receptor M4 (P08173 whole entry): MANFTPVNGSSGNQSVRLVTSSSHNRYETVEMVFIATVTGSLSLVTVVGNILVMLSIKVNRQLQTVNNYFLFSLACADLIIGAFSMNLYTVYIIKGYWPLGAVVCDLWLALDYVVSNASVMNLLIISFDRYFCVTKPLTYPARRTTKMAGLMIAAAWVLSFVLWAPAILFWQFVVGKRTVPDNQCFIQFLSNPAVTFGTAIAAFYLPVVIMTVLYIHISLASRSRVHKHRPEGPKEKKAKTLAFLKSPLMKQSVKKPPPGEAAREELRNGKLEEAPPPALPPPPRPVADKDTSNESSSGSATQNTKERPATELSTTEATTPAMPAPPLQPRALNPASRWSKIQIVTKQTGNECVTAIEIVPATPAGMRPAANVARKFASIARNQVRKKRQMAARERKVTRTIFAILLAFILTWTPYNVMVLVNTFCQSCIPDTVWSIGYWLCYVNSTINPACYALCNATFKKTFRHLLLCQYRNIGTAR
Sequence of Sodium-dependent noradrenaline transporter (Homo sapiens) (P23975 whole entry): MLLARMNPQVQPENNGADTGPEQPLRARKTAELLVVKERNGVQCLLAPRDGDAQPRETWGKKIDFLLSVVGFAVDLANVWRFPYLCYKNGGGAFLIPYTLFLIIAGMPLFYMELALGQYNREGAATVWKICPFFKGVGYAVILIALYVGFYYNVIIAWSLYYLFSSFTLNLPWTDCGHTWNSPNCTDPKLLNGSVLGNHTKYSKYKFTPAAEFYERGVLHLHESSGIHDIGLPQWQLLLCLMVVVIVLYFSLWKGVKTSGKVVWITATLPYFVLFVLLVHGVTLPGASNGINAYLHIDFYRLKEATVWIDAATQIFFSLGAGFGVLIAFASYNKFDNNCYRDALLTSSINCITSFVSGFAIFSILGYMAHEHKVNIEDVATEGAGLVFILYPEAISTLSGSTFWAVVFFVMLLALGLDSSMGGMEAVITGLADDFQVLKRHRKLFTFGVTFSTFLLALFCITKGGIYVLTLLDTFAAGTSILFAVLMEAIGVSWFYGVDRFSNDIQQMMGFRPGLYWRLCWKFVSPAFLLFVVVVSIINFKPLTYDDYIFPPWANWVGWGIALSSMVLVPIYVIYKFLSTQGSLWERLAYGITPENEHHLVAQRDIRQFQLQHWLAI
Sequence of Sigma non-opioid intracellular receptor 1 (Homo sapiens) (Q99720 whole entry): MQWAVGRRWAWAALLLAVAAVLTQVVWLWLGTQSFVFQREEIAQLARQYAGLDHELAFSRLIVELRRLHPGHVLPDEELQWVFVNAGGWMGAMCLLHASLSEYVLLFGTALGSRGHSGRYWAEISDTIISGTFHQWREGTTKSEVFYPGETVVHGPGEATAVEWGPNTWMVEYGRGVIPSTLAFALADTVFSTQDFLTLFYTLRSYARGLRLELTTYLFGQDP
Sequence of 5-hydroxytryptamine receptor 3A (Homo sapiens) (P46098 whole entry): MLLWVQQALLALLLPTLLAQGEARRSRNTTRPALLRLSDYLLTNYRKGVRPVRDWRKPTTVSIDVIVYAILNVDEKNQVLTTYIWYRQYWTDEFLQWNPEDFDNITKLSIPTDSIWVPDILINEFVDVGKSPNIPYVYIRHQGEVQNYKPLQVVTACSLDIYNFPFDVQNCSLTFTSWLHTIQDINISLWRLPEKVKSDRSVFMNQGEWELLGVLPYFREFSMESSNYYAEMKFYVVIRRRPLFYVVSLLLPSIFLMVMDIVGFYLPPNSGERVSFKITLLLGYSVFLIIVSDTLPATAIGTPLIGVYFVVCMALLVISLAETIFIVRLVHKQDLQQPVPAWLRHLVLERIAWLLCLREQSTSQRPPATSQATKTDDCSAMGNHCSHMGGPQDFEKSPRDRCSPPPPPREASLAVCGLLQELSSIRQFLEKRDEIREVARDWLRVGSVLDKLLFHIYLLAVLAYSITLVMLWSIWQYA
Sequence of D(3) dopamine receptor (Homo sapiens) (P35462 whole entry): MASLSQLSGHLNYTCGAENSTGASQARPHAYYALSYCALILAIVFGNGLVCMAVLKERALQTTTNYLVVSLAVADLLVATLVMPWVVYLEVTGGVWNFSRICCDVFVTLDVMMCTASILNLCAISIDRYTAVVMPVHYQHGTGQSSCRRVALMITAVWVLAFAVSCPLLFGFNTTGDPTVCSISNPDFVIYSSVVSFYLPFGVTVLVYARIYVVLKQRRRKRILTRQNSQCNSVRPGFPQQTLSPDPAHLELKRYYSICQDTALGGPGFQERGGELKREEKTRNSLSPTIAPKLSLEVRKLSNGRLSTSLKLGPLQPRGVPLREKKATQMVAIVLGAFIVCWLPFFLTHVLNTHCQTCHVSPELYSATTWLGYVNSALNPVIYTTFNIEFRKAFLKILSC
Sequence of 5-hydroxytryptamine receptor 5A (Homo sapiens) (P47898 whole entry): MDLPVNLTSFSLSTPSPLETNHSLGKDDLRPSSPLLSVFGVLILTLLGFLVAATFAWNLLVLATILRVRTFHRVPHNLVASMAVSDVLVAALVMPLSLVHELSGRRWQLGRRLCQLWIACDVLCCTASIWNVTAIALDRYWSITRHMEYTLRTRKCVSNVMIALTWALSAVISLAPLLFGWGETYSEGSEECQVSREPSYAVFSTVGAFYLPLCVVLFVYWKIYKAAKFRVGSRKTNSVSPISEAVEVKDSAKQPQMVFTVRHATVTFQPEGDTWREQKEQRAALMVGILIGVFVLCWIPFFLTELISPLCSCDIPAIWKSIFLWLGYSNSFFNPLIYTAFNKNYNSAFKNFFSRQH
Sequence of 5-hydroxytryptamine receptor 7 (Homo sapiens) (P34969 whole entry): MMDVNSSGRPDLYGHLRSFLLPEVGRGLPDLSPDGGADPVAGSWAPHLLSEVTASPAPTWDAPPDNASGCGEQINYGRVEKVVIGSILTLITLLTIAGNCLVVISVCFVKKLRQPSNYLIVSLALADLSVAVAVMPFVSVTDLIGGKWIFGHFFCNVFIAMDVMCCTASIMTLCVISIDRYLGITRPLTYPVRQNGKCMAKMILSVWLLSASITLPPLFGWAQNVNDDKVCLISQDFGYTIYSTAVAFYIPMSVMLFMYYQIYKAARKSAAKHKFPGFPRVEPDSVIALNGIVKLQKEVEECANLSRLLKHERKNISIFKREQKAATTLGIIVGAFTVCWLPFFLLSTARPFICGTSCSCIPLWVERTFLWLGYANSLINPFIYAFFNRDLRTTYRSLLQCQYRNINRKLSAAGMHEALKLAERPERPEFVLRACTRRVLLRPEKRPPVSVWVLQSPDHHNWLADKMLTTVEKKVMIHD
Sequence of Delta-type opioid receptor (Homo sapiens) (P41143 whole entry): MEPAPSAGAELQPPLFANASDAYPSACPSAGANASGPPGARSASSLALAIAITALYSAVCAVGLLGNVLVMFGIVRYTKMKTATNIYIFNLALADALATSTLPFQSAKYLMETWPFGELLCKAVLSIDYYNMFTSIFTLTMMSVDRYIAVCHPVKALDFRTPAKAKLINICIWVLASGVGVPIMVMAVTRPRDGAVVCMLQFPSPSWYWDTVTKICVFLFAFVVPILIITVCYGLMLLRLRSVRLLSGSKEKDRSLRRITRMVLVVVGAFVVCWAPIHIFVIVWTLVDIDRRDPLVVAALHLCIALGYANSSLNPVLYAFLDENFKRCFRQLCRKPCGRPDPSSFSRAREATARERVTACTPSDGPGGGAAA
Sequence of D(1B) dopamine receptor (Homo sapiens) (P21918 whole entry): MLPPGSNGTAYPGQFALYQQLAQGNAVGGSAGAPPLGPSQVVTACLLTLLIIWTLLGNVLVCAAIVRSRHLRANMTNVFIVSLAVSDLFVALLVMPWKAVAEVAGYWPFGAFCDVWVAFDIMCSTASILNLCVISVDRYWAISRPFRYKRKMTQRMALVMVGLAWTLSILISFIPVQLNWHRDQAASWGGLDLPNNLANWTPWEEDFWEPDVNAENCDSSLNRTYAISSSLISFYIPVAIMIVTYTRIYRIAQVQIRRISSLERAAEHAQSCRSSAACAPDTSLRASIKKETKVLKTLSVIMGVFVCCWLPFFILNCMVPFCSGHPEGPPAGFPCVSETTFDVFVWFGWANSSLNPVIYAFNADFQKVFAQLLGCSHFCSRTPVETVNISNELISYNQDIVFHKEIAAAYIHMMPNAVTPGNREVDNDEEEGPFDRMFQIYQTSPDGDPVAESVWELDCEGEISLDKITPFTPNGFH
Sequence of 5-hydroxytryptamine receptor 1D (Homo sapiens) (P28221 whole entry): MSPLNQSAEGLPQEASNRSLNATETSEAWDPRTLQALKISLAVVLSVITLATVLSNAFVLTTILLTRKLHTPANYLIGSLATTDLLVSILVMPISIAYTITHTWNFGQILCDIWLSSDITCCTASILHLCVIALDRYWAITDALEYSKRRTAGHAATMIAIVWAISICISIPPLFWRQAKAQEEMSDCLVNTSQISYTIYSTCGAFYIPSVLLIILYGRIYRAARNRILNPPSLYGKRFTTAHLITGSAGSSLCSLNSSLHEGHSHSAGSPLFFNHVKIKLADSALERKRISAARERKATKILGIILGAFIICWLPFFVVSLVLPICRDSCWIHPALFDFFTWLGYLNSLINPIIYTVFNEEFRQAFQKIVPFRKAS
Sequence of 5-hydroxytryptamine receptor 1B (Homo sapiens) (P28222 whole entry): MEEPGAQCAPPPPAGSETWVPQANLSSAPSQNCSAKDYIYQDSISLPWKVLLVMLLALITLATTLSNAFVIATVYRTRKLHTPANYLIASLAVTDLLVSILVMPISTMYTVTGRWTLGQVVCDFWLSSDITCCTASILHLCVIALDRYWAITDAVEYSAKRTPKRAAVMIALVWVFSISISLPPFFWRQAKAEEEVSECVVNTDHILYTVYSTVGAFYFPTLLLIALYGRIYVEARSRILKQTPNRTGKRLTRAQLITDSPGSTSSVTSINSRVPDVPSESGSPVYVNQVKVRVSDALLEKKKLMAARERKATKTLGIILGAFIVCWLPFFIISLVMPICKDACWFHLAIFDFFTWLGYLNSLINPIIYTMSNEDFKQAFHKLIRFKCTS

residual activity [2]: 98%
residual activity [3]: 106%
inhibition [6]: 3.05%
residual activity [7]: 98%
residual activity [8]: 88%
inhibition [9]: 16.8%
residual activity [10]: 86%
residual activity [11]: 96%
inhibition [12]: 28.1%
inhibition [13]: 18.2%
Ki ([14]; read-out: Ki): 878 nM
Ki ([14]; read-out: pKi (converted)): 851 nM
residual activity [15]: 90%
residual activity [18]: 82%
IC50 [19]: 40 nM (active)
residual activity [20]: 100%
inhibition [21]: 13.2%
Kd [22]: 3680 nM (not active)
inhibition [23]: 12.9%
inhibition [24]: 17.6%
residual activity [25]: 83%
residual activity [26]: 97%
residual activity [29]: 101%
residual activity [30]: 100%
residual activity [31]: 88%
inhibition [32]: -1.33%
inhibition [33]: 4.8%
residual activity [34]: 98%
IC50 [35]: ≤ 3 nM (active)
residual activity [36]: 86%
inhibition [37]: 14.6%
residual activity [38]: 93%
Kd [39]: No binding
residual activity [40]: 96%
residual activity [43]: 93%
Compound: CNC(=O)COc1cc2cc(Nc3nc(N4CCC(C(=O)N(C)C)CC4)ncc3Cl)cc(OC)c2n(C)c1=O
residual activity [1]: 99%
activity at 10 µM (hERG (KCNH2)): 92% (not active)
residual activity [4]: 95%
residual activity [5]: 124%
residual activity [16]: 98%
residual activity [17]: 118%
residual activity [27]: 99%
residual activity [28]: 113%
residual activity [41]: 99%
residual activity [42]: 88%
